Data taken from PubChem BioAssay (NCI).
Where “and” joins values, the source holds several entries; their conditions need not be identical. Equal entries are not always repeated.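 Five compound concentrations were applied to cells in 96-well plates for 48 hours; endpoints were derived by simple linear interpolation of the resulting dose-response curve. GI50: concentration for 50% inhibition of growth. TGI denotes the concentration required for complete inhibition of growth.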

Experiments:
Assay in all cases: NCI-60 cell line screen, 48 h
SF-295 CNS = test system: SF-295 CNS
U251 CNS = test system: U251 CNS
HOP-92 NSCLC = test system: HOP-92 NSCLC
NCI/ADR-RES ovarian = test system: NCI/ADR-RES ovarian
UO-31 renal = test system: UO-31 renal
MDA-MB-435 = test system: MDA-MB-435
RXF 393 renal = test system: RXF 393 renal
COLO 205 colon = test system: COLO 205 colon
CCRF-CEM leukemia = test system: CCRF-CEM leukemia
T-47D breast = test system: T-47D breast

Row | SMILES | GI50 (SF-295 CNS) [µM] | TGI (SF-295 CNS) | GI50 (U251 CNS) [µM] | TGI (U251 CNS) | GI50 (HOP-92 NSCLC) [µM] | TGI (HOP-92 NSCLC) | GI50 (NCI/ADR-RES ovarian) [µM] | TGI (NCI/ADR-RES ovarian) | GI50 (UO-31 renal) [µM] | TGI (UO-31 renal) | GI50 (MDA-MB-435) [µM] | TGI (MDA-MB-435) | GI50 (RXF 393 renal) [µM] | TGI (RXF 393 renal) | GI50 (COLO 205 colon) [µM] | TGI (COLO 205 colon) [µM] | GI50 (CCRF-CEM leukemia) [µM] | TGI (CCRF-CEM leukemia) | GI50 (T-47D breast) [µM] | TGI (T-47D breast)
1 | Nc1ccc(C#Cc2cncnc2Nc2ccc(OCc3cccc(F)c3)c(Cl)c2)cc1 | 10.6 | > 25 µM | > 14 | > 25 µM | 10.6 | > 25 µM | 12.7 | > 25 µM | 3.2 | > 25 µM | > 17.6 | > 25 µM | 5 | > 25 µM | > 25 | > 25 | 5.72 | > 25 µM | 6.17 | > 25 µM
2 | C(CCc1nnc2c(n1)CCCC2)Cc1nnc2c(n1)CCCC2 | – | > 100 µM | – | > 100 µM | – | > 100 µM | – | > 100 µM | – | > 100 µM | – | > 100 µM | – | > 100 µM | – | > 100 | – | > 100 µM | – | > 100 µM
3 | COC(=O)c1ccc(=O)c2nc3/c(=C/O)c(O)cc(=O)c3[nH]c12 | 0.153 | 14.3 µM and 8.64 µM | 0.176 | 28.6 µM and 12.3 µM | – | 6.03 µM and 11.1 µM | 0.379 | > 33.6 µM and 13.8 µM | 0.578 | 8.11 µM and 18 µM | 0.559 | 23.7 µM and 13.2 µM | 0.637 | 43.3 µM and 17.1 µM | 6.49 | > 100 | 0.397 | > 100 µM and 17.2 µM | 1.29 | 8.65 µM and 48.2 µM
4 | O=c1cccc(C#Cc2ccccc2)o1 | 5.03 | 13.8 µM | 9.2 | > 36.4 µM | 2.06 | 13.8 µM | 7.11 | > 26.6 µM | 3.41 | > 35.1 µM | 6.89 | 24.9 µM | 6.27 | 61.6 µM | 12.6 | > 44.9 | – | > 44 µM | 8.67 | 46 µM
5 | Nc1nc2ccc([C@@H]3Nc4ccc5[nH]ncc5c4[C@H]4[C@H]5CCC(C5)[C@H]43)cc2s1 | 0.648 | 5.95 µM | 1.18 | 11.5 µM | 1.67 | 11.8 µM | 0.966 | 4 µM | 1.78 | 12.2 µM | 0.293 | 1.03 µM | 1.47 | 7.56 µM | 1.08 | 2.92 | 0.507 | 19 µM | 0.79 | 6.16 µM
6 | O=C1/C(=C/c2ccccc2)SC(=Nc2ccccc2)N1Nc1ccccc1 | 16.3 | > 100 µM | 12.9 | > 100 µM | 3.6 | 42.2 µM | 18.1 | > 100 µM | 7.94 | > 100 µM | 15.1 | 48 µM | 8.44 | 30 µM | 20.3 | > 100 | 4.07 | > 100 µM | 5.41 | > 100 µM
7 | COc1ccc(-c2cnc(-c3ccc(F)cc3)[nH]2)cc1 | 1.54 | 3.43 µM | 6.3 | 17.2 µM | – | 13.1 µM | 28.6 | > 100 µM | 6.59 | 20.4 µM | 1.96 | 5.27 µM | 2.2 | 5.59 µM | 2.2 | 7.59 | 18.1 | > 89.4 µM | 8.39 | 36.4 µM
8 | COC(=O)c1c2c(c(C)[n+]([O-])c1C)C(=O)C=C(NCc1cccc(OC)c1)C2=O | 0.772 | 2.1 µM | 0.646 | 2.08 µM | 1.99 | 4.7 µM | 0.441 | 3.15 µM | 1.13 | 2.44 µM | 0.178 | 0.33 µM | 1.27 | 2.63 µM | 0.293 | 0.928 | 0.471 | – | 0.286 | 1.62 µM
9 | Cc1cc(=O)oc2cc(OC(=O)Nc3ccc(Cl)c(Cl)c3)ccc12 | – | 74.4 µM | – | 56.8 µM | – | 43.4 µM | – | > 100 µM | – | 72.7 µM | – | 41.2 µM | – | 52.3 µM | – | 96.5 | – | 51.6 µM | – | 68.3 µM
10 | COC(=O)[C@]12CC[C@@H](C)[C@H](C)[C@@H]1C1=CC[C@@H]3[C@@]4(C)C(C=O)=C[C@@](C)(COC(C)=O)[C@@H]4[C@H](O)C[C@@]3(C)[C@]1(C)CC2 | 1.67 | 3.54 µM | 1.92 | 4.36 µM | 1.65 | 4.28 µM | 2.79 | 9.73 µM | 1.57 | 3.84 µM | 2.09 | 5.04 µM | 1.56 | 3.03 µM | 2.14 | 4.96 | 1.98 | 7.01 µM | 2.75 | 14.2 µM
11 | O=S(=O)(NC(=S)Nc1ccccc1)c1ccc(N2N=C3c4ccccc4CC3C2c2cccs2)cc1 (stereo not given) | 18.9 | 41.8 µM | 26.2 | 76.7 µM | 24.9 | 71.7 µM | 19.3 | 44.5 µM | 51.2 | > 100 µM | 19.4 | 45.6 µM | 78.1 | > 100 µM | 41.9 | > 100 | 30.5 | 85.9 µM | > 100 | > 100 µM
12 | C=C1C(=O)O[C@H]2[C@H]1CC/C(COC(=O)C(=O)c1c[nH]c3ccc(OC)cc13)=C\CC[C@@]1(C)O[C@@H]21 | 12.4 | 29.5 µM | 7.06 | 10.8 µM | 1.74 | 3.85 µM | 9.53 | 29.6 µM | 4.6 | 7.91 µM | 5.52 | 10.8 µM | 3.21 | 6.84 µM | – | > 20.6 | 2.47 | 23 µM | 6.98 | 12.4 µM
13 | CN1CCN(c2ccc(-c3cnc4c(-c5csc6ccccc56)cnn4c3)cc2)CC1 | > 15 | > 15 µM | 4.38 | > 15 µM | > 15 | > 15 µM | 6.2 | > 15 µM | 10.3 | > 15 µM | 11.7 | > 15 µM | 3.5 | 10.7 µM | 7.28 | > 15 | 4.43 | > 15 µM | > 15 | > 15 µM
